How the values were obtained:
[1] = test system: MDA-MB 231 triple negative breast cancer cells; assay: Cancer stem cell frequency (CD24-CD44+, Hoechst side population), MDA-MB231; assay type: cell-based, human; conditions: 50 μM, 4 Gy or 8 Gy
Method: (§1) For cancer stem cell analysis, by Aldefluor assay, MCF7 cells and MDA MB231 cells were stained with either Aldefluor reagent or PE-[…], APC-Cy7CD44, antibodies for 20 min on ice. The cells were washed and fixed with 1% paraformaldehyde for 20 min and stained with Hoechst 33342 (10 mg/ml) for 4 h. Isotype controls stained cells, single antibody stained cells, and fluorescence minus one (FMO) controls were used for compensation and gating. The cells were acquired on a flow Cytometer (Partec Cyflow) and analysed using FlowJo 7.6.5 (Treestar, Inc., Ashland) software.

[2] = test system: MCF7 human breast cancer cells; assay: Clonogenic survival assay, MCF7; assay type: cell-based
Method: (§2) A549 and MCF 7 cells (2000 cells for control, 4 Gy and 5000 cells for 8 Gy treatments) were plated overnight in 6 well plates followed by treatment with indicated concentrations of chlorophyllin (0, 10, 20, 50 or 100 μM) for 2 h and exposed to indicated doses of radiation. After radiation exposure plates were incubated at 37° C. in CO2 incubator for 12 days for the development of colonies. After the colony formation, the plates were washed with PBS, fixed with methanol and stained with crystal violet. The colonies with more than 50 cells were counted and the survival fraction was calculated using the following formula: Survival fraction=No. of colonies/[no. of cells plated X (plating efficiency/100)], where plating efficiency is the ratio between the number of colonies developed to the number of cells plated in control.

[3] = test system: bone marrow cellularity; assay: Bone marrow cellularity after 6 Gy whole body radiation; assay type: in vivo, BALB/c mice; conditions: 500 mg/Kg bw orally for 3 consecutive days
Method: (§3) Experimental animals 8- to 9 weeks-old inbred BALB/c male mice, weighing approximately 20-25 g, were treated with CHL formulation at the dose of 500 mg/Kg bw given orally for 3 consecutive days followed by whole body irradiation [using a 60Co γ-irradiator at a dose rate of 1 Gy/min (BhabhatronI II, Panacea, India)] of 7.5 Gy in one group and 6 Gy radiation to another group. Treated groups were compared to untreated control and mice treated only with CHL formulation at the given dose and mice with whole body irradiation without the CHL formulation.

[4] = test system: hematopoietic stem cells in the bone marrow; assay: Hoechst side population assay of bone marrow; assay type: in vivo, BALB/c mice; conditions: 500 mg/Kg bw orally for 3 consecutive days
Method: 8- to 9 weeks-old inbred BALB/c male mice, weighing approximately 20-25 g, were grouped into untreated control and CHL treated groups.
(§4) CHL formulation dose and duration: 500 mg/Kg bw given orally for 3 consecutive days.
Side population analysis: The femur bones the above mentioned mice were dissected and the marrow was flushed out into cold Iscove's Modified Dulbecco's Medium (IMDM), 2% FBS using a 21-gauge needle. Nucleated cells were counted using Hemocytometer and trypan blue dye exclusion. Three million cells from each mouse were resuspended in pre-warmed (37° C.) DMEM without phenol red. Hoechst 33342 ([…]) was added and cells were incubated at 37° C. for 90 min with intermittent shaking. At the end of incubation, cells were washed with DMEM without phenol red and kept on ice and acquired on a flow cytometer within 2 h. Verapamil (100 μM concentration) treated bone marrow cells were used to identify the Hoechst side population in this assay.
Verapamil dose: 100 μM final concentration

[5] = Pharmacokinetic study, serum half-life; assay type: in vivo; conditions: mice
[6] = test system: lineage negative cells in the bone marrow; assay: Cell cycle of lineage negative cells in the bone marrow; assay type: in vivo, mice; conditions: specified dose
[7] = test system: MCF7 human breast cancer cells; assay: Cancer stem cell frequency (Aldefluor, CD24-CD44+, Hoechst side population), MCF7; assay type: cell-based; conditions: 4 Gy or 8 Gy
Method: as §1

[8] = test system: rats; assay: Acute oral toxicity in rats; assay type: in vivo; conditions: up to an acute oral dose of 5 gm per Kg body weight
[9] = test system: mice; assay: Acute oral toxicity in mice; assay type: in vivo; conditions: up to an acute oral dose of 5 gm per Kg body weight
[10] = test system: mice exposed to whole body irradiation; assay: Protection against whole body irradiation induced mortality (30 days survival); assay type: in vivo, BALB/c mice; conditions: 100 mg/kg bw, Intra peritoneal, 7.0 Gy
[11] = test system: normal lung epithelia; assay: Gamma radiation (4 Gy)-induced injury to lung epithelial cells (cellular atypia); assay type: in vivo
[12] = test system: A549 human lung cancer cells; assay: Clonogenic survival assay, A549; assay type: cell-based
Method: as §2

[13] = test system: MCF7 human breast cancer cells; assay: γH2AX foci formation assay, MCF7; assay type: cell-based; conditions: 50 μM
Method: (§5) A549 cells and MCF (3×10^5 cells) were grown on the coverslip, treated with 50 μM of chlorophyllin, followed by 4 Gy radiation exposure. At different time intervals after irradiation (either 15 min or 120 min), cells were fixed with 4% paraformaldehyde, permeabilized using Triton X-100, blocked with 5% bovine serum albumin and then treated with anti-γ-H2AX antibody. Then cells were stained with FITC labeled secondary antibody and visualized using fluorescence microscope. The average number of foci per cell was calculated after counting the foci from 100 cells per group.

[14] = test system: MCF-7 human breast cancer xenograft tumors; assay: In vivo radiosensitization of human breast cancer xenograft in SCID mice
Method: MCF-7 cells (10×10^6 in 50 μl 1×PBS and 50 μl matrigel) were injected subcutaneously in foot pad of each mouse and tumors were monitored till they developed to measurable size. Mice were then treated with 500 mg/Kg bw chlorophyllin in PBS orally for three consecutive days. After last dose administration mice were locally exposed to IR 6 Gy (at the site of tumor) and subsequently monitored for 30 days for tumor growth and survival. Measurements of tumor were taken on alternate days using digital Vernier caliper and tumor volume was recorded. At the end of 30 days tumour mass was excised for further analysis.

[15] = test system: Gr-1+ granulocytes; assay: Frequency of Gr-1+ granulocytes in bone marrow and blood; assay type: in vivo, mice
Method: Percent granulocytes are a biological marker for efficacy of chlorophyllin as a radioprotector in vivo. […] This is the preferred dose range. Although percentage of granulocytes increases at doses 720 and 900 mg/kg body weight, these doses are not preferred to be translated to humans. (FIG. 1E)

[16] = test system: G-CSF; assay: Serum levels of G-CSF as a function of time; assay type: in vivo, mice; conditions: 500 mg/Kg bw orally for 3 days; 2, 24, 48 and 72 hrs
Method: as §4

[17] = test system: mice exposed to whole body irradiation; assay: Protection against whole body irradiation induced mortality (30 days survival); assay type: in vivo, BALB/c mice; conditions: for Extent of protection offered to mice against radiation induced mortality: Oral; for protection against radiation induced mortality as monitored by 30 days survival: 100-1000 mg/kg b.w. (preferred 180-500) orally, table of expected outcome
Method: as §3
To assess the in vivo radio protective efficacy of chlorophyllin, mice were given three consecutive oral administrations of: CHL formulation 1 containing chlorophyllin (500-mg/kg bw) and penicillin (10-50 mg/kg+ streptomycin 20-80 mg/kgbw) or CHL formulation 2 containing chlorophyllin (500 mg/kg bw) and tetracycline (20-80 mg/kgbw) at 24 h interval and were exposed to 8 Gy dose of whole body irradiation (which is used as a supplement to surgery during radiotherapy of cancer patients) 2 h after the last injection. Formulation 3 is chlorophyllin alone given at a dose of 500 mg/kg bw for three consecutive days with a gap of 24 h between each dose.
Trials were conducted where chlorophyllin formulation ranging from 90 mg/kg bw to 2000 mg/kg body weight were administered to mice by oral gavage for three to four consecutive days at 24 h interval between doses. Alternatively, chlorophyllin was administered by intraperitoneal route (100 mg/kg body weight) for three consecutive days at 24 h interval. The mice were exposed to different doses of whole body irradiation (7.0 Gy, 7.5 Gy or 8 Gy) 2 h after last dose of chlorophyllin. The mice were monitored for changes in body weight and survival up to 30 days after WBI.

[18] = test system: bone marrow cells; assay: Colony forming units in bone marrow cells of whole body irradiated mice; assay type: cell-based; conditions: bone marrow cells in vitro
[19] = test system: MCF-7 human breast cancer cells; assay: Mitotic catastrophe, Hoechst stained nuclei; assay type: cell-based
Method: MCF-7 cells (3×10^5 cells) were grown on the coverslip, treated with indicated concentrations of chlorophyllin (0, 10, 20, 50 or 100 μM) and exposed for 48 hrs to indicated doses of radiation (4 Gy and 8 Gy). After irradiation cells were fixed and stained with Hoechst and observed under fluorescence microscope. Cells with mitotic abnormalities have been counted for each group.

[20] = test system: A549 human lung cancer cells; assay: γH2AX foci formation assay, A549; assay type: cell-based; conditions: 50 μM
Method: as §5

[21] = test system: MCF-7 cells; assay: Reactive oxygen species by DCFDA, DHE, DHR123 fluorescence; assay type: cell-based, human; conditions: 50 μM
Method: MCF-7 cells (1×10^5) were stained with H2DCF-DA (10 μM) Ex./Em. 485/535 nm or dihydroethidium (DHE 5 μM) 518/605 nm or DHR 123 (5 μM) 500/536 nm for 20 min and incubated with chlorophyllin (50 μM) or vehicle for indicated time intervals at 37° C. Cells were exposed to 4 Gy IR and fluorescence was monitored at respective wavelengths using BioTek Microplate Reader (Synergy).

[22] = chlorophyllin alone, 10-100 μM, 2 h

## chlorophyllin
[1]
  percentage of CD24-CD44+ cancer stem cells, combination with radiation: more effective than radiation or chlorophyllin alone
[2]; MCF-7, 4 Gy, CHL 10, 20, 50 or 100 μM
  sensitization to radiation induced loss of clonogenic capacity: significantly sensitized
[2]; [22]
  colony forming ability of MCF-7 cells as compared to control: significantly decreased
[3]
  recovery from radiation induced bone marrow aplasia: enhanced the recovery
[4]
  increase of hematopoietic stem cells versus control: 2-3 fold
[4]; control 0.121%
  abundance of hematopoietic stem cells (Hoechst side population): 0.573%
[5]
  serum half-life: 2.363 h
[6]
  cell cycle effect in lineage negative cells in the bone marrow: transient cell cycle arrest
[7]; 50 μM
  percentage of CD24-CD44+ cancer stem cells, combination with radiation: more effective than radiation or chlorophyllin alone
[7]; 100 μM
  radiation induced increase in ALDH-positive cells: significantly attenuated
[8]
  toxicity: did not show any toxicity
[9]
  toxicity: did not show any toxicity
[10]; 1 day
  Extent of protection offered to mice against radiation induced mortality: 30%
[10]; 4 days
  Extent of protection offered to mice against radiation induced mortality: 70%
[11]
  gamma radiation-induced injury to normal lung epithelia (cellular atypia): reduced
[12]; A549, 4 Gy, CHL 10, 20, 50 or 100 μM
  sensitization to radiation induced loss of clonogenic capacity: able to sensitize
[12]; [22]
  colony forming ability of A549 cells as compared to control: significantly decreased
[13]; 15 min after 4 Gy
  number of γ-H2AX foci versus radiation alone: did not have any effect
[13]; 120 minutes after 4 Gy
  number of γ-H2AX foci versus radiation alone: significantly higher
[14]; 500 mg/Kg bw orally for three days + 6 Gy focal irradiation
  prevention of growth of human breast cancer cells in SCID mice: most effective
[14]; 6 Gy, 100-1000 mg/kg b.w. (preferred 180-500) orally, three consecutive days, without antibiotics, table of expected outcome
  reduction in tumor after exposure to IR as compared to control mice bearing human xenograft: (50%
[14]; chlorophyllin alone, 500 mg/Kg bw orally for three consecutive days
  tumour volume: significant decrease
[15]; 500 mg/Kg bw orally for 3 days
  neutrophil frequency in the peripheral blood: increased neutrophil frequency
  production of granulocytes (Gr-1+) in bone marrow: increase in the production of granulocytes
[15]; doses up to 900 mg/kg body weight
  percent granulocytes, dose response: increases up to 180 mg/kg and then plateaus up to 540 mg/kg body weight dose
[16]
  serum levels of G-CSF: maximum rise after 24 hrs
[17]; 90 mg/kg bw, 3 days, 7.5 Gy
  Extent of protection offered to mice against radiation induced mortality: 66.6%
[17]; 180 mg/kg bw, 3 days, 7.5 Gy
  Extent of protection offered to mice against radiation induced mortality: up to 100%
[17]; 180 mg/kg bw, 3 days, 7.5 Gy, listed as Chlorophyllin
  Extent of protection offered to mice against radiation induced mortality: 100%
[17]; 500 mg/kg bw, 3 days, 7.5 Gy
  Extent of protection offered to mice against radiation induced mortality: 70%
[17]; 2000 mg/kg bw, 4 days, 7.0 Gy
  Extent of protection offered to mice against radiation induced mortality: 50%
[17]; 7.5 Gy, 500 mg/Kg bw orally for 3 consecutive days
  protection against whole body irradiation induced mortality: significantly protected
[17]; 7.5 Gy, three consecutive days, without antibiotics
  protection against radiation induced mortality as monitored by 30 days survival: 100%
[17]; 8 Gy WBI, 500 mg/kg bw, three consecutive days, 80% of irradiated mice died within 17 days
  rescue from WBI-induced mortality, 30 days survival: rescued all the mice
[17]; 8 Gy, three consecutive days, with antibiotics
  protection against radiation induced mortality as monitored by 30 days survival: 100%
[17]; chlorophyllin 500 mg/kg bw, 3 days, 8.0 Gy
  Extent of protection offered to mice against radiation induced mortality: 60%
[18]
  number of colony forming units (CFUs) in bone marrow cells: significantly increased
[19]; 4 Gy or 8 Gy, 10-100 μM
  radiation toxicity in human breast cancer cells in vitro: enhanced the radiation toxicity
[19]; chlorophyllin prior to 4 Gy or 8 Gy, 48 h
  mitotic abnormalities (micronuclei, multinucleated giant cells): pattern of mitotic catastrophe
[20]; 15 min after 4 Gy
  number of γ-H2AX foci versus radiation alone: did not have any effect
[20]; 120 minutes after 4 Gy
  number of γ-H2AX foci versus radiation alone: significantly higher
[21]; 4 Gy IR
  radiation induced increase in intracellular ROS levels: attenuated
[21]; no radiation
  background levels of free radicals: able to scavenge
